In patent publication US20220397580A1, “METHOD OF DETECTING A NEURODEGENERATIVE DISEASE” (NATIONAL UNIVERSITY OF SINGAPORE, priority 2019, published 2022):

Tested on: exosomes derived from neuronal cells (SH-SY5Y)
Test: Exosome-Aβ association kinetics on APEX (SPR) sensor functionalized with protein aggregates
Assay type: binding, Human
Settings: relative to BSA controls
Method: Characterization of exosome-A13 association. The prepared protein aggregates (Aβ42 and BSA control) were used for surface functionalization onto the APEX sensors, via EDC/NHS coupling as previously described. Unbound protein aggregates were washed away with PBS. The amount of protein conjugated was measured from the resultant transmission spectral shifts. This information was used to determine the number of conjugated protein aggregates and their associated total protein surface area for exosome binding (see below for detailed information), so as to normalize for binding affinities. Following surface functionalization with the protein aggregates, exosomes ([…]) were introduced onto the sensors. Spectral changes were measured every 3 s for a total duration of 480 s to construct real-time kinetics sensorgrams. Exosome association kinetics and binding affinities were determined for different-sized protein aggregates.
To account for protein aggregate size differences as well as SPR-associated exponential decay of sensitivity (with increasing distance from the sensing surface), the following equation was used
S=E×∫0^2rπ[r^2−(r−z)^2]×e^(−2z/l^d^)dz […]
All protein aggregates were approximated as spheres, as supported by transmission electron micrographs (FIG. 3b, left) and their r determined from dynamic light scattering analysis. […]

## bigger Aβ42 aggregates: Aβ42 protein (rPeptide) incubated with agitation for 1 h to induce further aggregation, filtered through 0.2-μm membrane
Exosome binding data normalized to aggregate surface area
  KD(small)/KD(big): 5.27
neuron-derived exosomes, normalized to aggregate surface area
  binding affinity of the vesicles compared to the smaller Aβ42 aggregates: > 5 fold
